Measured values reported in US20140005145A1, “COMBINATION BREAST CANCER THERAPY WITH HSP90 INHIBITORY COMPOUNDS” (SYNTA PHARMACEUTICALS CORP., priority 2010, published 2014).

Assays:
[1] = tested on: MCF-7 human breast cancer tumor cells; assay: MCF-7 human breast tumor xenograft in nude mice, Compound 1 with or without tamoxifen; format: in vivo
Experimental: Tumor-bearing animals (5 mice/group) were i.v. injected 1 time per week for a total of 3 doses with 10 mL/kg of 10/18 DRD vehicle with or without 180 mg/kg Compound 1. Animals were also implanted with slow release tamoxifen pellets (Tam). In the combination treatment group, animals were dosed with Compound 1 four days after tamoxifen pellets were implanted. Each group that was not dosed with Compound 1 was instead dosed with 10/18 DRD vehicle as a mock treatment. Average tumor volumes for each group were determined every 3-5 days.
The human breast cancer cell line, MCF-7, was obtained from the American Type Culture Collection (Manassas, Va., USA) and grown according to the ATCC guidelines. MCF-7 xenografts were established in twenty nude mice (Charles River Laboratories, Wilmington, Mass., USA) supplemented with slow release estrogen pellets as previously described, using 5×10^6 cells (1), and randomized into treatment groups. Ten days after cells were inoculated half of the animals were supplemented with slow release tamoxifen pellets.
To formulate Compound 1 in 10/18 DRD, stock solutions of the test article were prepared by dissolving the appropriate amounts of the compound in dimethyl sulfoxide (DMSO) by sonication in an ultrasonic water bath. Stock solutions were prepared weekly, stored at −20° C. and diluted fresh each day for dosing. A solution of 20% Cremophor RH40 (polyoxyl 40 hydrogenated castor oil; BASF Corp., Aktiengesellschaft, Ludwigshafen, Germany) in 5% dextrose in water (D5W; Abbott Laboratories, North Chicago, Ill., USA) was also prepared by first heating 100% Cremophor RH40 at 50-60° C. until liquefied and clear, diluting 1:5 with 100% D5W, reheating again until clear and then mixing well. This solution was stored at room temperature for up to 3 months prior to use. To prepare 10/18 DRD formulations for daily dosing, DMSO stock solutions were diluted 1:10 with 20% Cremophor RH40. The final 10/18 DRD formulation for dosing contained 10% DMSO, 18% Cremophor RH40, 3.6% dextrose, 68.4% water and the appropriate amount of test article. Animals were intravenously (i.v.) injected with this formulation at 10 mL per kg body weight on one day each week for a total of 3 doses, four days after tamoxifen pellets were implanted.
The ability of Compound 1 to enhance the in vivo anti-tumor activity of tamoxifen was investigated.

[2] = tested on: MCF-7 breast cancer cells; assay: Emergence of tamoxifen resistant clones in MCF-7 cell culture; format: cell-based, human; conditions: tamoxifen combined with compound 1, MCF-7 cell culture

Compound | adverse finding in dosed animals ([1]; Compound 1 alone cohort, 180 mg/kg i.v., one of the animals, following the first dose, removed from the study) | in vivo growth rate of MCF-7 cells (tumor volume) ([1]; Compound 1 alone, 180 mg/kg i.v. 1 time per week, 3 doses, nude mice) | effect in combination with tamoxifen in the treatment of breast cancer ([1]; in combination with tamoxifen, preclinical model) | tumor response (tumor volume) to the combination ([1]; slow release tamoxifen combined with 180 mg/kg Compound 1 i.v. 1 time per week, 3 doses, nude mice) | emergence of tamoxifen resistant clones [2] | in vivo growth rate of MCF-7 cells (tumor volume) ([1]; slow release tamoxifen pellets alone (10/18 DRD vehicle as mock treatment), nude mice)
CC(C)c1cc(-c2nnc(O)n2-c2ccc3c(ccn3C)c2)c(O)cc1O [Compound 1, 3-(2,4-dihydroxy-5-isopropyl-phenyl)-4-(1-methyl-indol-5-yl)-5-hydroxy-[1,2,4]triazole] | signs of necrosis in the tail | moderate reductions in the growth rate | surprising synergistic effect | significant tumor regression | dramatically limited the emergence of tamoxifen resistant clones | 
CC/C(=C(\c1ccccc1)c1ccc(OCCN(C)C)cc1)c1ccccc1 [tamoxifen, reference compound] |  |  |  |  |  | moderate reductions in the growth rate
